Reference: patent US5874481A, “Fluorochemical solutions for the delivery of lipophilic pharmaceutical agents” (priority 1995, dated 1999)
Values after ≈ are worked out from the molar mass of the structure shown. Read-outs that look alike come from different tables or passages of the source.

What was measured:
[1] = cited from earlier work
[2] = Solubility in perfluorooctyl ethane (Example 6); assay type: physicochemical; settings: organic solvent or mixture; saturated in n-C8F17C2H5; read-out: g/L in C8F17C2H5
Description: A pharmaceutical fluorochemical solution was prepared as follows:
An aliquot of n-C8 F17 C2 H5 (2 mL; F-Tech, Inc.) was saturated with "Drug" (Sigma Chemical Co.).

[3] = Effect of fluorochemical lipophilicity on pharmaceutical solubility (Example 7); assay type: physicochemical
Description: Pharmaceutical fluorochemical solutions were prepared as follows: […]

[4] = Solubility of prednisone in fluorocarbons (Example 5); assay type: physicochemical; settings: organic solvent or mixture, read-out: mg/L of prednisone in fluorochemical matrix
Description: A prednisone containing perfluorochemical solution was prepared as follows:
The column was a 25 cm amino column (Rainin), and the detection was carried out by a UV detector (Beckman System Gold) at the end of the column.

[5] = in vivo, cited from earlier work
[6] = octanol/pH 7.4 isotonic phosphate buffer at 37° C.

OC(CCN1CCCCC1)(c1ccccc1)C1CCCCC1 (stereo not shown) [trihexyphenidyl]
Log Po/w ([1]; octanol/water, pH 7.4): 3.17
Octanol/water partition coefficient Po/w ([1]; octanol/water, pH 7.4): 1.47 × 10^3

CN(C)CCCN1c2ccccc2CCc2ccc(Cl)cc21 [clomipramine]
Octanol/water partition coefficient Po/w ([1]; octanol/water, pH 7.4): 3.80 × 10^3

CCCCc1ccccc1 [Butylbenzene]
solubility [2]: 116 g/L (≈ 862 mM)
log Po/w ([1]; Example 6, source not stated): 4

c1ccc2cc3ccccc3cc2c1 [Antracene]
solubility [2]: 0.09 g/L (≈ 0.505 mM)
log Po/w ([1]; Example 6, source not stated): 4.473

CC(C)=CCN1CCC2(C)c3cc(O)ccc3CC1C2C (stereo not shown) [pentazocin]
Log Po/w [1, 6]: 2.18
Octanol/water partition coefficient Po/w [1, 6]: 150

c1ccc2cc3ccccc3cc2c1 [^14 C-anthracene, anthracene]
Octanol/water partition coefficient Po/w ([1]; octanol/water): 3.16 × 10^4

CCCCCCc1ccccc1 [Hexylbenzene]
solubility [2]: 67.1 g/L (≈ 413 mM)
log Po/w ([1]; octanol/water): 5.52

CCCCC(=O)OCCOCn1cnc2c(=O)[nH]c(N)nc21 [valeryl acyclovir]
Log Po/w [1, 6]: 0.30

CCCCCCCCCCCCCCCc1cccc(O)c1 [m-Pentadecylphenol]
solubility [2]: 0.4 g/L (≈ 1.31 mM)
solubility ([3]; c6f13c2h5, organic solvent or mixture): 700 µg/mL (≈ 2.3 mM)
solubility ([3]; c6f13c6h13, organic solvent or mixture): 4100 µg/mL (≈ 13.5 mM)
solubility ([3]; c6f13c8h17, organic solvent or mixture): 5600 µg/mL (≈ 18.4 mM)
solubility ([3]; c8f17c2h5, organic solvent or mixture): 400 µg/mL (≈ 1.31 mM)
solubility ([3]; c8f17c4h9, organic solvent or mixture): 600 µg/mL (≈ 1.97 mM)
solubility ([3]; c8f17c6h13, organic solvent or mixture): 1700 µg/mL (≈ 5.58 mM)
log Po/w ([1]; octanol/water): 9.53

C[C@]12C=CC(=O)C=C1CC[C@@H]1[C@@H]2C(=O)C[C@@]2(C)[C@H]1CC[C@]2(O)C(=O)CO [prednisone]
solubility ([4]; 1,4-dibromooctafluorobutane with 10% ethanol, in 1,4-Dibromooctafluorobutane with 10% Ethyl Alcohol): 1700 mg/L (≈ 4.74 mM)
solubility ([4]; 1,4-dibromooctafluorobutane with 50% ethanol, in 1,4-Dibromooctafluorobutane with 50% Ethyl Alcohol): 3800 mg/L (≈ 10.6 mM)
solubility ([4]; n-c6f13c2h5 with 3% ethanol, in n-C6F13C2H5 with 3% Ethyl Alcohol): 27 mg/L (≈ 0.0753 mM)
solubility ([4]; n-c6f13c6h13 with 3% ethanol, in n-C6F13C6H13 with 3% Ethyl Alcohol): 80 mg/L (≈ 0.223 mM)
solubility ([4]; n-c8f17br with 3% ethanol, in n-C8F17Br with 3% Ethyl Alcohol): < 1 mg/L
solubility ([4]; in 1,4-Dibromooctafluorobutane): < 1 mg/L

c1ccc2cc3cc4ccccc4cc3cc2c1 [2,3 Benzanthracene]
solubility [2]: 0.0003 g/L (≈ 0.00131 mM)
log Po/w ([1]; Example 6, source not stated): 5.807

c1ccc2ccccc2c1 [Naphthalene]
solubility [2]: 8.1 g/L (≈ 63.2 mM)
solubility ([3]; organic solvent or mixture, in C6F13C2H5, read-out: Naphthalene): 12000 µg/mL (≈ 93.6 mM)
solubility ([3]; organic solvent or mixture, in C6F13C6H13, read-out: Naphthalene): 30000 µg/mL (≈ 234 mM)
solubility ([3]; organic solvent or mixture, in C6F13C8H17, read-out: Naphthalene): 40000 µg/mL (≈ 312 mM)
solubility ([3]; organic solvent or mixture, in C8F17C2H5, read-out: Naphthalene): 8000 µg/mL (≈ 62.4 mM)
solubility ([3]; organic solvent or mixture, in C8F17C4H9, read-out: Naphthalene): 14000 µg/mL (≈ 109 mM)
solubility ([3]; organic solvent or mixture, in C8F17C6H13, read-out: Naphthalene): 23000 µg/mL (≈ 179 mM)
log Po/w ([1]; Example 6, source not stated): 3.387

CCc1ccccc1O [o-Ethylphenol]
solubility [2]: 9.4 g/L (≈ 76.9 mM)

CC/C(=C(/CC)c1ccc(O)cc1)c1ccc(O)cc1 [^3 H -diethylstilbesterol, diethylstilbesterol]
Octanol/water partition coefficient Po/w ([1]; octanol/water): 1.26 × 10^5

CC(=O)[C@H]1CC[C@H]2[C@@H]3CCC4=CC(=O)CC[C@]4(C)[C@H]3CC[C@]12C [^14 C-progesterone, progesterone]
Octanol/water partition coefficient Po/w ([1]; octanol/water): 7.9 × 10^3

CCc1cc2c(s1)N(C)C(=O)CN=C2c1ccccc1Cl [clotiazepam]
Log Po/w [1, 6]: 3.49
Octanol/water partition coefficient Po/w [1, 6]: 3.06 × 10^3

CCCCCCCCCCCC(=O)N1CCCCCC1 [^14 C-hexamethylene lauramide, hexamethylene lauramide]
Log Po/w ([1]; octanol/water): 7.3
Octanol/water partition coefficient Po/w ([1]; octanol/water): 2.00 × 10^7

Cc1ccc(O)cc1 [p-Cresol]
solubility [2]: 3.9 g/L (≈ 36.1 mM)
log Po/w ([1]; Example 6, source not stated): 1.9

CC(CN1c2ccccc2Sc2ccccc21)N(C)C (stereo not shown) [promethazine]
Log Po/w [1, 6]: 3.10
Octanol/water partition coefficient Po/w [1, 6]: 1.27 × 10^3

CCCCCC(=O)OCCOCn1cnc2c(=O)[nH]c(N)nc21 [hexanoyl acyclovir]
Log Po/w [1, 6]: 0.93

CCCCN1CCCCC1C(=O)Nc1c(C)cccc1C (stereo not shown) [bupivacaine]
Octanol/water partition coefficient Po/w ([1]; octanol/water): 28.2

CC(=O)O[C@H]1C(=O)[C@@]2(C)[C@H]([C@H](OC(=O)c3ccccc3)[C@]3(O)C[C@H](OC(=O)[C@H](O)[C@@H](NC(=O)c4ccccc4)c4ccccc4)C(C)=C1C3(C)C)[C@]1(OC(C)=O)CO[C@@H]1C[C@@H]2O [paclitaxel]
systemic toxicities ([5]; iv): high systemic toxicities
systemic toxicities associated with paclitaxel [5]: cardiac toxicity and neurotoxicity
